Measurements as given in a flash point compilation (Sun et al. 2020).

| Compound | flash point [°C] |
| --- | --- |
| COCCO [2-methoxyethanol] | 42.00 |
| CCCCC [pentane] | -49.00 |
| COCCOC [1,2-dimethoxyethane] | 0.00 |
| CCCCCCCCCCCCCCCCC [heptadecane] | 149.00 |

Remark: another data set of the same source

| Compound | flash point [°C] |
| --- | --- |
| COCCO [2-methoxyethanol] | 38 |
| CCCCC [pentane] | -40 |
| COCCOC [1,2-dimethoxyethane] | -2 |
| CCCCCCCCCCCCCCCCC [heptadecane] | 148 |
| c1ccsc1 [thiophene] | -9 |
| C=Cc1ccc(F)cc1 [4-fluorostyrene] | 35 |
| Cc1cccc(C(C)C)c1 [m-isopropyltoluene] | 47 |
| CCC(C)(C)C [2,2-dimethylbutane] | -29 |
| CCSCC [diethylsulfide] | -10 |
| CCC(C)OC (stereo unspecified) [2-methoxybutane] | -29 |
| C1CCSCC1 [thiacyclohexane] | 21 |
| CCC(CC)CC [3-ethylpentane] | -12 |
| CC/C=C\CCC [cis-3-heptene] | -9 |
| OCCO [1,2-ethanediol] | 108 |
| CCCCCCCCC(C)C [2-methyldecane] | 50 |
| CC(C)(Cl)Cl [2,2-dichloropropane] | -5 |
| C[C@@H]1CCCC[C@H]1O (relative stereo) [trans-2-methylcyclohexanol] | 59 |
| CCCCCc1ccccc1 [pentylbenzene] | 66 |
| CCOCC [diethylether] | -40 |
| CC(=O)CC(C)=O [2,4-pentanedione] | 38 |

Remark: another data set of the same source

| Compound | flash point [°C] |
| --- | --- |
| BrC(Br)Br [bromoform] | 83 |
| CCCCCCCO [1-heptanol] | 71 |
| Cc1ccncc1 [4-picoline] | 40 |
| CCCCCCCCBr [1-bromooctane] | 78 |
| c1ccc(CCc2ccccc2)cc1 [bibenzyl] | 129 |
| CC=Cc1ccc(OC)cc1 [anethole] | 90 |
| CCC(C)C(C)C (stereo unspecified) [2,3-dimethylpentane] | -6 |
| COC(=O)C(C)C [methyl isobutyrate] | 3 |
| CCOC(=O)c1ccccc1 [ethyl benzoate] | 88 |
| CN(C)CCCN [N,N-dimethyl-1,3-propanediamine] | 35 |
| CCNC(C)=O [N-ethylacetamide] | 110 |
| CCOC(=O)CC(C)=O [3-oxobutanoic acid ethyl ester] | 70 |
| CCCCC(CC)CN (stereo unspecified) [2-ethyl-1-hexanamine] | 50 |
| Cc1ccc(O)c(C(C)(C)C)c1 [2-t-butyl-4-methylphenol] | 100 |
| C=C(C)CCCCC [2-methyl-1-heptene] | 10 |
| CCCCCCCCCCCc1ccccc1 [undecylbenzene] | 144 |
| C=CC(C)O (stereo unspecified) [3-buten-2-ol] | 20 |
| CCc1ccccc1CC [o-diethyl benzene] | 49 |
| FC1CCCCC1 [fluorocyclohexane] | 5 |
| CCCCOC(=O)CC [butyl propionate] | 32 |
| C=C(C)CCl [3-chloro-2-methyl-1-propene] | -12 |

| Compound | flash point [°C] |
| --- | --- |
| C=C(C)C(C)=O [methyl isopropenyl ketone] | 13 |
| Cc1ccc(C)c(C)c1 [1,2,4-trimethylbenzene] | 44 |
| OCCS [2-mercaptoethanol] | 73 |
| OCCc1ccccc1 [2-phenylethanol] | 102 |
| CCOS(=O)OCC [diethyl sulfite] | 53 |
| CCCC(=O)CC [3-hexanone] | 35 |
| CN(C)CC1CCCCC1 [N,N-dimethylcyclohexanemethylamine] | 48 |
| CCCOC(C)=O [n-propyl acetate] | 10 |
| C=C(C)C=O [2-methyl-2-propenal] | -15 |
| NCCN [1,2-ethanediamine] | 34 |
| Cc1ccc(N)cc1 [4-methylaniline] | 86 |
| c1ccc2ncccc2c1 [quinoline] | 105 |
| SCCCCl [3-chloro-1-propanethiol] | 43 |
| C1CCC2OC2C1 (stereo unspecified) [cyclohexene oxide] | 24 |
| Cc1cccc(Cl)c1 [3-chlorotoluene] | 50 |
| CCOC(=O)c1ccccc1C(=O)OCC [diethyl phthalate] | 160 |
| OCCCCl [3-chloro-1-propanol] | 73 |
| CCC(C)SC(C)CC (stereo unspecified) [s-butyl sulfide] | 39 |
| C1=CCC=C1 [1,3-cyclopentadiene] | 25 |
| CC(Cl)CO (stereo unspecified) [2-chloro-1-propanol] | 52 |
| Cc1cccc(I)c1 [1-iodo-3-methylbenzene] | 82 |
